We go through one compound from publication PMC10339131, “Characterization of two bacterial multi-flavinylated proteins harboring multiple covalent flavin cofactors” (BBA Advances, 2023).

One assay has as its target T1, CbFMN4-D1 (Clostridiaceae bacterium, UniProt Z9KOB2RJF1).
T1 construct: expressed in E. coli BL21-AI with ApbE and CaFADS; SUMO cleaved; two molecules per asymmetric unit from crystal packing
T1 sequence (Z9KOB2RJF1 1-85): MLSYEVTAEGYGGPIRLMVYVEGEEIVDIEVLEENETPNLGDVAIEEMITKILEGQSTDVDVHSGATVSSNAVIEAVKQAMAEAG
The assay is described as follows: X-ray crystal structure, […] A. The settings on record: covalent; bound via Thr67 (domain numbering); attached by co-expressed ApbE. The class given is binding.

For the next assay, the target named is T2, SaFMN3 (Streptomyces azureus, UniProt A0A0K8PVQ4).
T2 construct: gene SAZU_6878; N-terminal residues 1-48 (signal/membrane anchor) removed; His6-SUMO fusion, cleaved; E. coli BL21-AI with ApbE and CaFADS; mainly monomer; three FMN domains
T2 sequence (A0A0K8PVQ4 49-352): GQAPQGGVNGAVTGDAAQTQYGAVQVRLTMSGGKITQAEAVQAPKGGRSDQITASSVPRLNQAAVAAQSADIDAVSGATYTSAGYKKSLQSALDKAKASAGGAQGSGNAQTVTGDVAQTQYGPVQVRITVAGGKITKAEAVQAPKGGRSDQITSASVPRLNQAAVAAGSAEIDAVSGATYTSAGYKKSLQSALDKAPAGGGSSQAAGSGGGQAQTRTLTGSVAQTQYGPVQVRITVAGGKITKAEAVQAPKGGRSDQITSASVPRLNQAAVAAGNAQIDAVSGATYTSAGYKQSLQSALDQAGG
Briefly: ESI-MS of intact protein; TCA precipitation; UV-visible spectrum. In kind it is binding. The note with it: covalent; three FMN sites, threonyl phosphoester; attached by co-expressed ApbE.

Consider `Cc1cc2nc3c(=O)[nH]c(=O)nc-3n(C[C@H](O)[C@H](O)[C@H](O)COP(=O)(O)O)c2cc1C` [FMN], for which the “X-ray crystal structure, 2.60 A” value on CbFMN4-D1 was “Both CbFMN4-D1 molecules have a covalently bound FMN via Thr67”. Further, the “ESI-MS of intact protein; TCA precipitation; UV-visible spectrum” value at SaFMN3 is “exactly corresponds to the predicted mass of fully flavinylated SaFMN3”.
